Tests used:
[1] = tested on: IL-10; test: IL-10 production by DCs (real time PCR and CBA); type: cell-based, mice (Mus musculus)
[2] = tested on: STAT3; test: p-STAT3 intracellular marking in BMDCs; type: cell-based, mice (Mus musculus); settings: 30 μg/ml, 45 minutes after the stimulus
Experimental: As positive control, the cells were stimulated with […] of phorbol myristate acetate (PMA) for 30 minutes. After the stimuli in the periods mentioned, the cells were fixed with Cytofix Buffer (BD Biosciences) for 10 minutes at 37° C. and permeated with Phosflow Perm Buffer III (BD Biosciences) for 30 minutes on ice. After such procedures, the cells were marked for p-ERK1/2 and p-STAT3.
For analyzing the recipients T cells, the cells were marked for CD4 (GK1.5), CD8a (53-6.7), Foxp3 (MF23), Ki67 (B56) achieved from BD Biosciences. […] The levels of phosphorylated ERK and STAT3 were determined using antibodies for p-ERK1/2 and p-STAT3 (BD Biosciences) in BMDCs previously fixed and permeablized. The cells were subsequently analyzed in the flow cytometer FACSCanto II (BD Biosciences) with the BD FACSDiva (BD Biosciences) program. The data achieved were analyzed with the Flowjo program (version 7.6.5, Tree Star).
The p-ERK expression was measured by flow cytometry. […] The p-STAT3 expression was measured by flow cytometry. […] After that, the IL-10 mRNA levels were measured by Real-time PCR and the concentration of this cytokine by flow cytometry, using the kit CBA Mouse Inflammation. […] After that, the MARCH-I mRNA levels were analyzed by Real-time PCR. […]

Hsp70: recombinant Mycobacterium tuberculosis Hsp70 (DnaK) produced in Escherichia coli BL21, LPS removed
IL-10 production, mRNA and protein level (FIG. 11 A) ([1]; DCs isolated from mice lymph nodes, 24 h): induce the IL-10 production | IL-10 mRNA and protein in DCs TLR2 KO (FIG. 12 A, B) ([1]; TLR2 KO compared with DCs WT): significant reduction of the mRNA expression | STAT3 phosphorylation in BMDCs (FIG. 13 C) [2]: induced the phosphorylation STAT3

— patent publication US20160295854A1, “COMPOSITION AND METHOD FOR EX-VIVO IMMUNOMODULATION AND/OR PRESERVATION OF ORGANS, METHODS AND USE” (UNIAO BRASILEIRA DE EDUCACAO E ASSISTENCIA , MANTENEDORA DA …, priority 2014, published 2016)
